Data taken from patent US7851000B2, “Taste potentiator compositions and edible confectionery and chewing gum products containing same” (Cadbury Adams USA LLC, priority 2005, dated 2010).

Columns and labels:
expert panel members = assay: Sucrose Equivalent Value (SEV), perceived sweetness matched to stock sucrose solutions; format: in vivo; settings: for effect on sweetness of sucrose solution (dose response curve): 0 to 1000 ppm in pH 3.2 buffered 5% sucrose solution; for effect on sweetness (SEV) of sucrose solutions, comparison of forms: 500 ppm in pH 3.2 buffered solutions with 0%, 3%, 5%, 7% and 9% sucrose; for SEV (%): 500 ppm potentiator alone in pH 3.2 buffered 5% sucrose solution
Method: One method of measuring the perceived sweetness of a solution is to match it with a stock sucrose solution of known concentration. In the present experiments, the compound of interest is added at a predetermined concentration to a pH 3.2 buffered solution containing 5% sucrose. A number of expert panel members then taste the solution and compare it to a battery of stock sucrose solutions ranging from 3% to 15% at increments of 1%. Each panel member decides which sucrose solution is equisweet with the solution containing the compound of interest. The mean value is then reported as the SEV. Results are reported to 1 decimal place.
In accordance with this methodology, 3-HB was added to a pH 3.2 buffered solution containing 5% sucrose to produce solutions containing from 0 to 1000 ppm 3-HB in 100 ppm increments. […] From FIG. 1 it is apparent that as the dosage of 3-HB increases so does the sweetness of the resultant solution. However the effect is non-linear with each incremental addition having a diminishing effect. The maximum sweetness attainable would appear to be about 7.9% SEV (based on a 5% sucrose solution).
The same methodology as described in Example 7 was repeated with 2,4-DHB in place of 3-HB, to produce the dose response curve for 2,4-DHB (FIG. 2). […] The maximum attainable sweetness would appear to be about 6.7% SEV (based on a 5% sucrose solution).
500 ppm of a sweetener potentiator was added to a pH 3.2 buffered solution containing 5% sucrose and the SEV of the resultant solution determined.
500 ppm of the sweetener potentiator then was added to a 5% sucrose solution containing 500 ppm 3-HB to produce a series of solutions. […] The use of 500 ppm of 3-HB alone results in an SEV of 6.9% whereas in all cases but two (2,4-DHB and 3,4-DHB) the addition of a second sweetener potentiator results in a little change or even a decrease in SEV. This is highly surprising considering that all of the potentiators are shown to have SEVs greater than 5%.
The methodology was repeated to produce a series of solutions containing 500 ppm 2,4-DHB and 500 ppm of a second sweetener potentiator.
500 ppm of 3-HB, 500 ppm of 2,4-DHB and 500 ppm of 3,4-dihydroxybenzoic acid (3,4-DHB) were added to a pH 3.2 buffered solution containing 5% sucrose and the SEV determined. The results are shown in FIG. 7 together with other combinations of 3-HB, 2,4-DHB and 3,4-DHB for comparison. The solution containing the combination of 3-HB and 2,4-DHB (hatched) has a much higher SEV (8.7%) than the combination of either 3,4-DHB and 3-HB (7.6%) or the combination of 3,4-DHB and 2,4-DHB (6.8%). The three-way combination of the embodiment (hatched) is better still with an SEV of 9.8%.
pH 3.2 buffered solutions were prepared containing 0%, 3%, 5%, 7% and 9% sucrose. 500 ppm of 2,4-DHB acid, 500 ppm of the sodium salt of 2,4-DHB and 500 ppm of the potassium salt of 2,4-DHB were added individually to each of the sucrose solutions. The SEV for each of the solutions was then determined.
The SEV of each sweetener solution was then evaluated after the addition 500 ppm of 3-HB, the addition of 500 ppm of 2,4-DHB and the addition of both 500 ppm 3-HB and 2,4-DHB.
500 ppm of 3-aminobenzoic acid and 500 ppm of 4-aminobenzoic acid were individually added to separate pH 3.2 buffered solutions containing 5% sucrose and the SEVs of the resultant solutions were determined. The SEV of 3-aminobenzoic acid was about 7%, i.e., increased the sweetness intensity of 5% sucrose to about 7%. The SEV of 4-aminobenzoic acid was about 5.5-6%, i.e., increased the sweetness intensity of 5% sucrose to about 5.5-6%.

[1] = cited from earlier work

| Compound | effect on sweetness of sucrose solution (dose response curve) (expert panel members) | effect on sweetness (SEV) of sucrose solutions, comparison of forms (expert panel members) | SEV (%) (expert panel members) | further results |
| --- | --- | --- | --- | --- |
| O=C(O)c1ccc(O)cc1O [2,4-DHB, 2,4-dihydroxybenzoic acid] | enhances the sweetness of the sucrose solution | enhances the sweetness of the sucrose solution in every case |  | effect on sweetness of 5% sucrose solution ([1]; 0.2% 2,4-DHB, Canadian Patent No. 1208966): increase in sweetness; effect on sweetness intensity of sucralose and aspartame ([1]; FIGS. 1 and 2 and Tables 1 and 2 of U.S. Pat. No. 6,461,658): slightly inhibitory effect; effect on sweetness delivery profile of sucralose ([1]; U.S. Pat. No. 6,461,658): significantly reducing the length of time during which sucralose sweetness is perceived; effect on sweetness with aspartame ([1]; WO99/15032): increase sweetness synergistically |
| O=C(O)c1cc(O)c(O)c(O)c1 [3,4,5-THB, 3,4,5-tryhydroxybenzoic acid] |  |  | 5.1% |  |
| O=C(O)c1ccc(O)c(O)c1 [3,4-DHB, 3,4-dihydroxybenzoic acid] |  |  | 6.4% |  |
| O=C(O)c1cccc(O)c1 [3-HB, 3-hydroxybenzoic acid] | enhances the sweetness of the sucrose solution |  |  | effect on sweetness of saccharin solution (expert panel members; 500 ppm, pH 3.2 saccharin solution of SEV about 5%): enhances the sweetness to a greater degree alone than in combination with 2,4-DHB |
| O=C([O-])c1ccc(O)cc1O.[K+] [potassium salt of 2,4-DHB] |  | enhances the sweetness of the sucrose solution in every case |  |  |
| O=C([O-])c1ccc(O)cc1O.[Na+] [sodium salt of 2,4-DHB] |  | enhances the sweetness of the sucrose solution in every case |  |  |
